{"source": "patent US20060115424A1", "about": "“Combination therapy of oxaliplatin and radioactively doped particles treating cancer” (priority 2003, published 2006)", "origin": "cited, not measured here", "test_system": "cancer", "conditions": "Gray et al (2001) Annals of Oncology 12: 1711-1720"}
{"smiles": "O=c1[nH]c(=O)n([C@H]2C[C@H](O)[C@@H](CO)O2)cc1F", "note": "[floxuridine]", "values": [{"measurement": "response rate", "result": 17.6, "unit": "%"}, {"measurement": "time to disease progression", "result": 9.7, "unit": "months"}]}
